Test results as given in patent US9770451B2, “Composition including ATM inhibitor for reducing cellular senescence and use of the composition” (Samsung Electronics Co., Ltd., priority 2014, dated 2017).

Key:
Type in all cases: cell-based, human
[1] = test system: progeria senescent fibroblasts (passage 17); assay: Morphological change by microscopy; settings: CP-466722 0.1 μM
Method: Progeria senescent fibroblasts (Hutchinson-Gilford Progeria Syndrome Skin Fibroblasts, Coriell Cell Repositories, AG03198 B) were inoculated into a DMEM medium containing 10% FBS, 100 units/ml of penicillin, and 100 μg/ml of streptomycin (wherein all antibiotics were purchased from Gibco-BRL, Grand Island, N.Y.), and then, cultured in a 5% CO2 incubator at a temperature of 37° C. When progeria senescent cells were grown to about 85% confluency in a plate, the progeria senescent cells were subjected to subculture. The early subculture was carried out at a split ratio of 1:4, and the late subculture was carried out at a split ratio of 1:2. When the cell doubling time was 14 days, the cells were considered to be progeria senescent fibroblasts (passages 16 to 17).
[…] The medium was replaced by a fresh medium containing KU-60019 (0.5 μM), once every 4 days. In addition, as a negative control group, the cells were cultured under the same conditions as described above, except that a medium used herein contained DMSO (0.05 (v/v) %).
In FIG. 10, a human dermal fibroblast was cultured in the presence of the ATM-kinase inhibitor KU-60019 (0.5 μM), and then, the cell shapes were photographed using a microscope. To provide a better view of the cells formed in a dashed square a, a dashed square a1 was randomly selected, and then, the cells are shown enlarged in the dashed square a1. […]

[2] = test system: progeria senescent fibroblasts (passage 17); assay: Mitochondrial membrane potential (JC-1); settings: CP-466722 0.1 μM
Method: The mitochondrial activity potential (i.e., mitochondrial membrane potential) was measured according to the protocol of the manufacturer of the MitoProbe™ JC-1 assay kit for flow cytometry (Life technologies: T3168). […] Consequently, mitochondrial depolarization is indicated by a decrease in the red/green fluorescence intensity ratio. The cultured cells were analyzed by flow cytometry by using an FACSCaliber (Beckton Dickinson) using excitation at a wavelength of 488 nm, and band-pass emission light filters at a wavelength of 530/30 nm and 585/42 nm. The results were analyzed using Cell Quest 3.2 software (Beckton Dickinson). FIG. 12 is a graph showing results of measuring mitochondrial activity potential (B) of the cultured cells. […]
The mitochondrial activity potential (i.e., mitochondrial membrane potential) was measured according to the protocol of the manufacturer using the MitoProbe™ JC-1 assay kit for flow cytometry (Life technologies: T3168). […] Consequently, mitochondrial depolarization is indicated by a decrease in the red/green fluorescence intensity ratio. The cultured cells were analyzed by flow cytometry by using an FACSCaliber (Beckton Dickinson) using excitation at a wavelength of 488 nm, and band-pass emission light filters at a wavelength of 530/30 nm and 585/42 nm. The results were analyzed using Cell Quest 3.2 software (Beckton Dickinson).

[3] = test system: senescent myoblasts (passage 11); assay: Lipofuscin autofluorescence (FACS); settings: CP-466722 0.1 μM, 4 weeks
Method: In addition, the amounts of lipofuscin in the cells cultured as described above were measured. The senescent myoblast (passage 11) that became senescent in the presence of KU-60019 (0.5 μM) were cultured in a CO2 incubator at a temperature of 37° C. for 4 weeks. The medium was replaced by a fresh medium containing KU-60019 (0.5 μM), once every 4 days. Lipofuscin is characterized by having autofluorescence capability, and in this regard, the cultured cells were irradiated with a wavelength of 488 nm by using a FACSCaliber (Beckton Dickinson), and then, measured with radiation emitted from a wavelength of 520 nm. The results were analyzed using Cell Quest 3.2 software (Beckton Dickinson). FIG. 17 is a graph showing lipofuscin measured in the cells that were cultured in the presence of KU-60019.
In addition, the amounts of lipofuscin in the cells cultured as described above were measured. […] Lipofuscin is characterized by having autofluorescence capability, and in this regard, the cultured cells were irradiated with a wavelength of 488 nm by using a FACSCaliber (Beckton Dickinson), and then, measured with radiation emitted from a wavelength of 520 nm. The results were analyzed using Cell Quest 3.2 software (Beckton Dickinson). FIG. 23 is a graph showing lipofuscin measured in the cells that were cultured in the presence of CP-466722.

## COc1cc2ncnc(-n3nc(-c4ccccn4)nc3N)c2cc1OC [CP-466722, 2-(6,7-dimethoxyquinazolin-4-yl)-5-(pyridin-2-yl)-2H-1,2,4-triazol-3-amine]
[1]
  cell number and morphology vs DMSO control: exist in a great number in the presence of CP-466722 and show a spindle form
[2]
  mitochondrial activity potential vs control: significantly increased
[3]
  amount of lipofuscin vs control: significantly decreased
